Where two headings read alike, the source gives them in different places.
Assays:
[1] = test system: 60 human tumor cell lines; assay: NCI in vitro screening against 60 human cell lines, single concentration; format: cell-based; details: 10 μM dose; negative values indicate cytotoxicity
Procedure: Compounds selected from Compounds 3-44 were provided to the National Cancer Institute for in vitro screening against 60-human cell lines for their ability to inhibit the growth of tumor cells in a full panel representing nine different organs (blood, lung, colon, CNS, skin, ovary, kidney, prostate, and breast). The compounds were tested at a single concentration of 10 μM, and the percentages of growth inhibitions over the sixty tested cell lines were determined. Compounds showing the highest activity were chosen for secondary assays using five different compound concentrations.
The human tumor cell lines of the cancer screening panel were grown in RPMI 1640 medium containing 5% fetal bovine serum and 2 mM L-glutamine. For a typical screening experiment, cells are inoculated into 96 well microtiter plates in 100 μL at plating densities ranging from 5000 to 40,000 cells/well depending on the doubling time of individual cell lines. After cell inoculation, the microtiter plates are incubated at 37° C., 5% CO2, 95% air and 100% relative humidity for 24 hours prior to addition of experimental drugs. After 24 hours, two plates of each cell line are fixed in situ with Trichloroacetic acid (“TCA”), to represent a measurement of the cell population for each cell line at the time of drug addition. Experimental drugs are solubilized in dimethyl sulfoxide at 400-fold the desired final maximum test concentration and stored frozen prior to use. At the time of drug addition, an aliquot of frozen concentrate is thawed and diluted to twice the desired final maximum test concentration with complete medium containing 50 ng/mL gentamicin. An aliquot of 100 μL of this drug dilution is added to the appropriate microtiter wells already containing 100 μL of medium, resulting in the required final drug concentrations. Following drug addition, the plates are incubated for an additional 48 h at 37° C., 5% CO2, 95% air, and 100% relative humidity. For adherent cells, the assay is terminated by the addition of cold TCA. Cells are fixed in situ by the gentle addition of 50 μL of cold 50% (w/v) TCA (final concentration, 10% TCA) and incubated for 60 min at 4° C. The supernatant is discarded, and the plates are washed five times with tap water and air dried. Sulforhodamine B (SRB) solution (100 μL) at 0.4% (w/v) in 1% acetic acid is added to each well, and plates are incubated for 10 min at room temperature. After staining, unbound dye is removed by washing five times with 1% acetic acid and the plates are air dried. Bound stain is subsequently solubilized with 10 mM trizma base, and the absorbance is read on an automated plate reader at a wavelength of 515 nm. For suspension cells, the methodology is the same except that the assay is terminated by fixing settled cells at the bottom of the wells by gently adding 50 μL of 80% TCA (final concentration, 16% TCA). FIGS. 37-74 indicate the growth inhibition effects of selected Compounds against a variety of cell lines based on the above described testing configuration. FIGS. 37-74 present the Growth percent for a given compound against the cell lines and both values and a bar chart of the difference between the mean growth percent and the growth percent which is an indication of the selectivity of the compound for that particular cell line.

[2] = test system: MDA-MB-231 human breast cancer cells; assay: Wound-healing assay (cell migration); format: cell-based; details: Homo sapiens; MDA-MB-231, wound-healing assay, dose response; read-out: IC50 antimigratory activity
How it was run: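 Scratch wounds made in confluent (>95%) monolayers, then compounds added in fresh medium (5 μM in screening; concentration range in follow-up), DMSO as negative control, triplicate. After 24 h serum-starved at 37 °C, cells fixed and Diff-Quick stained. Migrated cells counted per 400× field (≥3 fields); IC50 from concentration range.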

[3] = test system: MCF 10A non-tumorigenic mammary epithelial cells; assay: MTT assay of MCF10A cells; format: cell-based, human; details: for IC50: Homo sapiens; for Selectivity index: IC50 for MCF 10A divided by IC50 for +SA cell line
How it was run: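 MCF 10A non-tumorigenic human mammary epithelial cells were seeded at 10×10^4 cells/well and treated with compounds in serum-free medium, final DMSO below 0.1%. Viability was read by MTT, and IC50 came from non-linear regression. Selectivity index = MCF 10A IC50 ÷ +SA cell line IC50.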

[4] = test system: MCF7 human breast cancer cell line; assay: MTT assay of MCF7 cells; format: cell-based; details: Homo sapiens, media containing 1% fetal bovine serum
Procedure: (§1) MDA-MB-231 and MCF7 cells were plated at a density of 8×10^3 cells/well and 10^4 cells/well in 96-well culture plates, respectively. The compounds were fed in serum free media containing 5% and 1% fetal bovine serum for MDA-MB-231 and MCF7 cells, respectively.

[5] = test system: leukemia and colon cancer cell lines; assay: NCI screening at several concentrations (GI50, TGI, LC50); format: cell-based, human
Procedure: The human tumor cell lines of the cancer screening panel were grown in RPMI 1640 medium containing 5% fetal bovine serum and 2 mM L-glutamine. For a typical screening experiment, cells are inoculated into 96 well microtiter plates in 100 μL at plating densities ranging from 5000 to 40,000 cells/well depending on the doubling time of individual cell lines. After cell inoculation, the microtiter plates are incubated at 37° C., 5% CO2, 95% air and 100% relative humidity for 24 hours prior to addition of experimental drugs. After 24 hours, two plates of each cell line are fixed in situ with Trichloroacetic acid (“TCA”), to represent a measurement of the cell population for each cell line at the time of drug addition. Experimental drugs are solubilized in dimethyl sulfoxide at 400-fold the desired final maximum test concentration and stored frozen prior to use. At the time of drug addition, an aliquot of frozen concentrate is thawed and diluted to twice the desired final maximum test concentration with complete medium containing 50 ng/mL gentamicin. An aliquot of 100 μL of this drug dilution is added to the appropriate microtiter wells already containing 100 μL of medium, resulting in the required final drug concentrations. Following drug addition, the plates are incubated for an additional 48 h at 37° C., 5% CO2, 95% air, and 100% relative humidity. For adherent cells, the assay is terminated by the addition of cold TCA. Cells are fixed in situ by the gentle addition of 50 μL of cold 50% (w/v) TCA (final concentration, 10% TCA) and incubated for 60 min at 4° C. The supernatant is discarded, and the plates are washed five times with tap water and air dried. Sulforhodamine B (SRB) solution (100 μL) at 0.4% (w/v) in 1% acetic acid is added to each well, and plates are incubated for 10 min at room temperature. After staining, unbound dye is removed by washing five times with 1% acetic acid and the plates are air dried. Bound stain is subsequently solubilized with 10 mM trizma base, and the absorbance is read on an automated plate reader at a wavelength of 515 nm. For suspension cells, the methodology is the same except that the assay is terminated by fixing settled cells at the bottom of the wells by gently adding 50 μL of 80% TCA (final concentration, 16% TCA). FIGS. 37-74 indicate the growth inhibition effects of selected Compounds against a variety of cell lines based on the above described testing configuration. FIGS. 37-74 present the Growth percent for a given compound against the cell lines and both values and a bar chart of the difference between the mean growth percent and the growth percent which is an indication of the selectivity of the compound for that particular cell line. […]

[6] = test system: MDA-MB-231 human breast cancer cell line; assay: MTT assay of MDA-MB-231 cells; format: cell-based; details: Homo sapiens, media containing 5% fetal bovine serum
Procedure: as §1

[7] = MCF-10A, MCF10A cells, Table II, non-linear regression, read-out: MCF10A (IC50)
[8] = MCF 10A non-tumorigenic cells, Table I, read-out: IC50 MCF 10A

| Compound | mean percent growth across all 60 cell lines (mean 60) [1] | IC50 [2] | IC50 [3, 7] | IC50 [3, 8] | Selectivity index [3] | IC50 [4] | GI50 [5] | IC50 [6] |
| --- | --- | --- | --- | --- | --- | --- | --- | --- |
| CC(C)=CCC/C(C)=C/CC/C(C)=C/CC[C@]1(C)CCc2c3c(cc(C)c2O1)OCN(CCCCCCO)C3 [Compound 38, 6-((R)-6,8-dimethyl-8-((3E,7E)-4,8,12-trimethyltrideca-3,7,11-trienyl)-9,10-dihydrochromeno[5,6-e][1,3]oxazin-2(1H,3H,8H)-yl)hexan-1-ol] | negative | 1500 nM | 2500 nM | 2500 nM | 1.92 | > 20000 nM | nanomolar | > 5000 nM |
| CC(C)=CCC/C(C)=C/CC/C(C)=C/CC[C@]1(C)CCc2c3c(cc(C)c2O1)OCN(CCCCCCCCO)C3 [Compound 40, 8-((R)-6,8-dimethyl-8-((3E,7E)-4,8,12-trimethyltrideca-3,7,11-trienyl)-9,10-dihydrochromeno[5,6-e][1,3]oxazin-2(1H,3H,8H)-yl)octan-1-ol] | negative | 4900 nM | 1700 nM | 1700 nM | 2.15 | > 20000 nM | nanomolar | 11700 nM |
